Biological target: T1, BRD9 (Homo sapiens, UniProt Q9H8M2)
T1 sequence (Q9H8M2 1-597): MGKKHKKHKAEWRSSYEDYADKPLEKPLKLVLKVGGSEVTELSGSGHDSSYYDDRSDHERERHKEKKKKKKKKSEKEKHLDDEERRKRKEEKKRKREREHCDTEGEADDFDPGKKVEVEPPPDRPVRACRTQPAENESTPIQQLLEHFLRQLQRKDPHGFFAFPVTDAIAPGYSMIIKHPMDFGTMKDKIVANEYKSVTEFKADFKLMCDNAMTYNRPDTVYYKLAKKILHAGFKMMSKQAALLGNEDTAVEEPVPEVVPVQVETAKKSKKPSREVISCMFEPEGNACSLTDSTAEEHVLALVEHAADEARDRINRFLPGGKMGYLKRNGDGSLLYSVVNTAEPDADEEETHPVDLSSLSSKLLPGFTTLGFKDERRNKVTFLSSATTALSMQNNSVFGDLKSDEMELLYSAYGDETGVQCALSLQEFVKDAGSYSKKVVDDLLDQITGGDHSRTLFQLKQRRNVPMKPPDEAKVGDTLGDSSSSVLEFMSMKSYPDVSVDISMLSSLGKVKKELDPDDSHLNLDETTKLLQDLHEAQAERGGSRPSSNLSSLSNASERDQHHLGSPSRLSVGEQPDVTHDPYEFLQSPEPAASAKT
Experiment: Degradation of BRD9 (IF), immunofluorescence in MV4-11 cells, 24 hours (Assay Protocol 2)
Format: cell-based
Set-up: A suspension of MV4-11 cells (ATCC CRL-9591) was prepared; host or cells: MV4-11
Details: BRD9 degradation; for DC50: Assay protocol 2, read-out: DC50; for Dmax: MV4-11, Assay protocol 2, read-out: Dmax
Outline: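 % BRD9 remaining, scaled between DMSO (high) and 100 nM CFT-8634 (low) control wells, derives from mean Alexa 647 contrast in central nuclei by high-content imaging. MV4-11 cells had 24 h compound exposure at 37° C. before PFA fixation, Triton permeabilisation and anti-BRD9 E4Q3F immunostaining.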

Row | Compound | DC50 | Dmax
1 | COc1cc(-c2cn(C)c(=O)c(C)c2C)cc(OC)c1CN1CCN(Cc2ccc3c(c2)[C@@H](C)N(C(=O)/C(C#N)=C/C2(OC)CC2)CC3)C2(CC2)C1 (single isomer, unassigned) [Compound C37, (E/Z)-2-(7-((7-(2,6-dimethoxy-4-(1,4,5-trimethyl-6-oxo-1,6-dihydropyridin-3-yl)benzyl)-4,7-diazaspiro[2.5]octan-4-yl)methyl)-1-methyl-1,2,3,4-tetrahydroisoquinoline-2-carbonyl)-3-(1-methoxycyclopropyl)acrylonitrile] | < 1.25 nM | > 75%
2 | COc1cc(-c2cn(C)c(=O)c(C)c2C)cc(OC)c1CN1CCN(Cc2ccc3c(c2)C(C)N(C(=O)/C(C#N)=C/C2(C)CCC(F)(F)CC2)CC3)C2(CC2)C1 (single isomer, unassigned) [Compound C38, (E/Z)-3-(4,4-difluoro-1-methylcyclohexyl)-2-(7-((7-(2,6-dimethoxy-4-(1,4,5-trimethyl-6-oxo-1,6-dihydropyridin-3-yl)benzyl)-4,7-diazaspiro[2.5]octan-4-yl)methyl)-1-methyl-1,2,3,4-tetrahydroisoquinoline-2-carbonyl)acrylonitrile] | 1.25 to 10 nM | 70 to 75%
3 | COc1cc(-c2cn(C)c(=O)c(C)c2C)cc(OC)c1CN1CCN(Cc2ccc3c(c2)[C@@H](C)N(C(=O)/C(C#N)=C/C(C)(C)O)CC3)C2(CC2)C1 (single isomer, unassigned) [Compound C39, (E/Z)-2-(7-((7-(2,6-dimethoxy-4-(1,4,5-trimethyl-6-oxo-1,6-dihydropyridin-3-yl)benzyl)-4,7-diazaspiro[2.5]octan-4-yl)methyl)-1-methyl-1,2,3,4-tetrahydroisoquinoline-2-carbonyl)-4-hydroxy-4-methylpent-2-enenitrile] | < 1.25 nM | > 75%
4 | COc1cc(-c2cn(C)c(=O)c(C)c2C)cc(OC)c1CN1CCN(Cc2ccc3c(c2)[C@@H](C)N(C(=O)/C(C#N)=C/C(C)(C)CN2CCOCC2)CC3)C2(CC2)C1 (single isomer, unassigned) [Compound C40, (E/Z)-2-(7-((7-(2,6-dimethoxy-4-(1,4,5-trimethyl-6-oxo-1,6-dihydropyridin-3-yl)benzyl)-4,7-diazaspiro[2.5]octan-4-yl)methyl)-1-methyl-1,2,3,4-tetrahydroisoquinoline-2-carbonyl)-4,4-dimethyl-5-morpholinopent-2-enenitrile] | 1.25 to 10 nM | 70 to 75%
5 | COc1cc(-c2cn(C)c(=O)c(C)c2C)cc(OC)c1CN1CCN(Cc2ccc3c(c2)[C@@H](C)N(C(=O)/C(C#N)=C/C(C)(C)CO)CC3)C2(CC2)C1 (single isomer, unassigned) [Compound C41, (E/Z)-2-(7-((7-(2,6-dimethoxy-4-(1,4,5-trimethyl-6-oxo-1,6-dihydropyridin-3-yl)benzyl)-4,7-diazaspiro[2.5]octan-4-yl)methyl)-1-methyl-1,2,3,4-tetrahydroisoquinoline-2-carbonyl)-5-hydroxy-4,4-dimethylpent-2-enenitrile] | 1.25 to 10 nM | > 75%
6 | COc1cc(-c2cn(C)c(=O)c(C)c2C)cc(OC)c1CN1CC(N(C)c2ccc3c(c2)[C@H](C)N(C(=O)/C(C#N)=C/C(C)(C)C)CC3)C1 (single isomer, unassigned) [Compound C44] | 1.25 to 10 nM | 70 to 75%
7 | COc1cc(-c2cn(C)c(=O)c(C)c2C)cc(OC)c1CN1CCC2(CCN(c3ccc4c(c3)[C@H](C)N(C(=O)/C(C#N)=C/C(C)(C)C)CC4)C2)C1 (single isomer, unassigned) [Compound C52] | 10 to 25 nM | 40 to 70%
8 | COc1cc(-c2cn(C)c(=O)c(C)c2C)cc(OC)c1CN1CCC(Cc2cccc3c2CCN(C(=O)/C(C#N)=C/C(C)(C)C)[C@H]3C)CC1 (single isomer, unassigned) [Compound C59, (E/Z)-2-(5-((1-(2,6-dimethoxy-4-(1,4,5-trimethyl-6-oxo-1,6-dihydropyridin-3-yl)benzyl)piperidin-4-yl)methyl)-1-methyl-1,2,3,4-tetrahydroisoquinoline-2-carbonyl)-4,4-dimethylpent-2-enenitrile] | 1.25 to 10 nM | 40 to 70%
9 | COc1cc(-c2cn(C)c(=O)c(C)c2C)cc(OC)c1CN1CCC(Cc2cccc3c2CCN(C(=O)/C(C#N)=C/C(C)(C)CF)[C@H]3C)CC1 (single isomer, unassigned) [Compound C60, (E/Z)-2-(5-((1-(2,6dimethoxy-4-(1,4,5-trimethyl-6-oxo-1,6-dihydropyridin-3-yl)benzyl)piperidin-yl)methyl)-1-methyl-1,2,3,4-tetrahydroisoquinoline-2-carbonyl)-5-fluoro-4,4-dimethylpent-2-enenitrile] | 1.25 to 10 nM | 70 to 75%
10 | COc1cc(-c2cn(C)c(=O)c(C)c2C)cc(OC)c1CN1CC2CC(C1)N2Cc1ccc2c(c1)[C@H](C)N(C(=O)/C(C#N)=C/C(C)(C)C)CC2 (single isomer, unassigned) [Compound C63, (E/Z)-2-(7-((3-(2,6-dimethoxy-4-(1,4,5-trimethyl-6-oxo-1,6-dihydropyridin-3-yl)benzyl)-3,6-diazabicyclo[3.1.1]heptan-6-yl)methyl)-1-methyl-1,2,3,4-tetrahydroisoquinoline-2-carbonyl)-4,4-dimethylpent-2-enenitrile] | 1.25 to 10 nM | > 75%
11 | COc1cc(-c2cn(C)c(=O)c(C)c2C)cc(OC)c1CN1CC2CC(C1)N2Cc1ccc2c(c1)[C@@H](C)N(C(=O)/C(C#N)=C/C(C)(C)C)CC2 (single isomer, unassigned) [Compound C64, (E/Z)-2-(7-((3-(2,6-dimethoxy-4-(1,4,5-trimethyl-6-oxo-1,6-dihydropyridin-3-yl)benzyl)-3,6-diazabicyclo[3.1.1]heptan-6-yl)methyl)-1-methyl-1,2,3,4-tetrahydroisoquinoline-2-carbonyl)-4,4-dimethylpent-2-enenitrile] | 25 to 1000 nM | 40 to 70%
12 | COc1cc(-c2cn(C)c(=O)c(C)c2C)cc(OC)c1CN1CCC(N(C)c2ccc3c(c2)[C@@H](C)N(C(=O)/C(C#N)=C/C(C)(C)C)CC3)CC1 (single isomer, unassigned) [Compound C65] | 1.25 to 10 nM | 40 to 70%
13 | COc1cc(-c2cn(C)c(=O)c(C)c2C)cc(OC)c1CN1CCC2(CC1)CCN(c1ccc3c(c1)[C@H](C)N(C(=O)/C(C#N)=C/C(C)(C)C)CC3)C2 (single isomer, unassigned) [Compound C66] | 1.25 to 10 nM | 40 to 70%
14 | COc1cc(-c2cn(C)c(=O)c(C)c2C)cc(OC)c1CN1CC(N(C)Cc2ccc3c(c2)[C@H](C)N(C(=O)/C(C#N)=C/C(C)(C)C)CC3)C1 (single isomer, unassigned) [Compound C70, (E/Z)-2-(7-(((1-(2,6-dimethoxy-4-(1,4,5-trimethyl-6-oxo-1,6-dihydropyridin-3-yl)benzyl)460zetidine-4-yl)(methyl)amino)methyl)-1-methyl-1,2,3,4-tetrahydroisoquinoline-2-carbonyl)-4,4-dimethylpent-2-enenitrile] | 25 to 1000 nM | 40 to 70%
15 | COc1cc(-c2cn(C)c(=O)c(C)c2C)cc(OC)c1CN1CC(N(C)Cc2ccc3c(c2)[C@@H](C)N(C(=O)/C(C#N)=C/C(C)(C)C)CC3)C1 (single isomer, unassigned) [Compound C71, (E/Z)-2-(7-(((1-(2,6-dimethoxy-4-(1,4,5-trimethyl-6-oxo-1,6-dihydropyridin-3-yl)benzyl)460zetidine-4-yl)(methyl)amino)methyl)-1-methyl-1,2,3,4-tetrahydroisoquinoline-2-carbonyl)-4,4-dimethylpent-2-enenitrile] | 25 to 1000 nM | 40 to 70%
16 | COc1cc(-c2cn(C)c(=O)c(C)c2C)cc(OC)c1CN1CCC(Oc2ccc3c(c2)[C@H](C)N(C(=O)/C(C#N)=C/C(C)(C)C)CC3)CC1 (single isomer, unassigned) [Compound C73, (E/Z)-2-(7-((1-(2,6-dimethoxy-4-(1,4,5-trimethyl-6-oxo-1,6-dihydropyridin-3-yl)benzyl)piperidin-4-yl)oxy)-1-methyl-1,2,3,4-tetrahydroisoquinoline-2-carbonyl)-4,4-dimethylpent-2-enenitrile] | 1.25 to 10 nM | > 75%
17 | COc1cc(-c2cn(C)c(=O)c(C)c2C)cc(OC)c1CN1CCN(Cc2cccc3c2CCN(C(=O)/C(C#N)=C/C(C)(C)CF)C3C(C)C)C2(CC2)C1 (single isomer, unassigned) [Compound C76, (E/Z)-2-(5-((7-(2,6-dimethoxy-4-(1,4,5-trimethyl-6-oxo-1,6-dihydropyridin-3-yl)benzyl)-4,7-diazaspiro[2.5]octan-4-yl)methyl)-1-isopropyl-1,2,3,4-tetrahydroisoquinoline-2-carbonyl)-5-fluoro-4,4-dimethylpent-2-enenitrile] | 1.25 to 10 nM | 70 to 75%

From patent publication US20260092061A1, “COMPOUNDS FOR TARGETED PROTEIN DEGRADATION” (Amphista Therapeutics Limited, priority 2022, published 2026)
